{"source": "patent US20220347167A1", "about": "“A NEW TREATMENT FOR MEIBOMIAN GLAND DYSFUNCTION” (The Schepens Eye Research Institute, Inc., priority 2019, published 2022)", "key": {"HMGECs": {"system": "HMGECs", "test": "Effect of low oxygen mimetic drugs on HMGEC function / lipid induction", "format": "cell-based, human"}, "[1]": {"system": "apolipoprotein E-deficient (ApoE −/−) mice", "test": "MGD model in ApoE −/− mice: tear volume and meibomian gland size", "format": "in vivo, mouse", "details": "Roxa 10 mg/kg subcutaneous, three times per week for 12 weeks", "protocol": "Two groups of ApoE KO mice (vehicle-treated ApoE −/−, as control, and Roxa-treated ApoE −/−), as well as wild-type C57BL/6J mice, were measured for weight, tear volume, corneal fluorescein staining and tear breakup time (TBUT). ApoE −/− mice were randomly divided into 2 groups (n=8 mice/group): control and Roxa-treated. The ApoE−/− mice were treated with vehicle control (2% DMSO in sterile saline, subcutaneous injection) or Roxa (10 mg/kg, subcutaneous injection). The injections were administrated three times/week; on Monday, Wednesday, and Friday mornings; for 12 weeks. At the end of the study, the weight, tear volume, corneal fluorescein staining and tear breakup time (TBUT) were weighted again for comparison. The bar chart in FIG. 6 compares mean tear volume of each group of mice after treatment.\nAfter the Roxa treatment, as described in FIG. 6, the eyelids of each mouse were dissected to assess meibomian gland size and morphology. […]\nAt the beginning of the study, the 16 ApoE−/− mice and 4 wild-type (WT) C57BL/6J mice, 12 weeks of age, were measured for their weight, tear volume, corneal fluorescein staining and tear breakup time (TBUT). […] At the end of the study, the weight, tear volume, corneal fluorescein staining and tear breakup time (TBUT) were measured again. […]"}, "DNase II": {"system": "DNase II", "test": "DNase II activity by single radial enzyme diffusion assay (SREDA) in IHMGECs", "format": "cell-based, human", "protocol": "After being treated with 21% O2, 1% O2, 10 μM Roxa or a combination for 10 days, cell numbers were counted with a hemocytometer and the cell lysates and cell culture supernatants were collected, as previously described in Liu et al. (2019) The ocular surface 17(2):310-317. DNase II activity in fresh samples was analyzed by SREDA in agarose gels according to published protocols in Liu et al. (2019) The ocular surface 17(2):310-317 and Oka et al. (2012) Nature 485:251-255. Cell lysates and culture media were used to measure the DNase II activity inside and outside of the cells, respectively [Liu et al. (2019) The ocular surface 17(2):310-317]. After incubation for 3-24 hours at 37° C., the area of the dark circle in the gel was measured under an UV trans-illuminator at 312 nm. For comparison between conditions, values were normalized to cell number.\nLow O2 increases DNase II activity and promotes cell terminal differentiation of IHMGECs (Liu et al. Ocul Surf 2019; 17:310-317). To determine whether Roxa treatment can reproduce this hypoxic effect, IHMGECs were treated with Roxa in both normoxic and 1% O2 conditions for 10 days, prior to counting cell numbers and analyzing DNase II activity in cell lysates and supernatants."}, "[2]": {"details": "Roxa alone, 21% O2, 10 days, normalized to cell number"}}}
{"smiles": "Cc1nc(C(=O)NCC(=O)O)c(O)c2ccc(Oc3ccccc3)cc12", "note": "[Roxa, roxadustat]", "values": [{"measurement": "lipid-inducing effect in HMGECs compared with other low oxygen mimetic drugs", "setting": "HMGECs", "result": "stronger lipid-inducing effect"}, {"measurement": "tear volume", "setting": "[1]; vs control group and WT mice, p<0.01", "result": "significantly increased"}, {"measurement": "meibomian gland loss in the mice eyelids (MG area)", "setting": "[1]; vs control group, p<0.05", "result": "significantly reduced"}, {"measurement": "DNase II activity in IHMGEC culture supernatants", "setting": "DNase II; [2]", "result": "significantly increased"}, {"measurement": "DNase II activity in IHMGEC lysates", "setting": "DNase II; [2]", "result": "significantly increased"}, {"measurement": "magnitude of DNase II activity increase, Roxa and low O2 combination", "setting": "DNase II; Roxa in 1% O2, 10 days, lysates and supernatants, vs 1% O2 alone and Roxa alone", "result": "greatest"}]}
